Data published in US20100105610A1, “Methods of Inhibiting Tumor Cell Aggressiveness Using the Microenvironment of Human Embryonic Stem Cells” (CHILDREN'S MEMORIAL HOSPITAL, priority 2006, published 2010).

Key:
MDA-MB-231 cells = experiment: In vitro proliferation assay (cell count), MDA-MB-231; format: cell-based, human; conditions: MDA-MB-231, relative to MO Control; 4 days after plating 15,000 cells
C8161 melanoma cells = experiment: In vivo tumor cell proliferation-to-apoptosis ratio (Ki67 / TUNEL), C8161 tumors; conditions: C8161 cells treated prior to injection into mouse
From the text: (§1) (A) In vivo tumor formation in a mouse injected with MDA-MB-231 cells pre-exposed for 3 days to either a control matrix (Matrigel) or a matrix conditioned by hESCs (H9 CMTX) (n=10) (B) C81-61 cells, transfected with either an empty vector or a Nodal expression construct (n=5), and (C) MDA-MB-231 cells treated with either MO^Control or MO^Nodal (n=10). […] (D) The ratio of tumor cell proliferation to apoptosis for C8161 and MDA-MB-231 derived tumors, determined by immunohistochemical staining for Ki67 and terminal deoxynucleotidyl transferase biotin-dUTP nick-end labeling (TUNEL). Prior to injection into a mouse, C8161 and MDA-MB-231 cells were cultured for 3 days on control or hESC conditioned (H9 CMTX) matrices, or treated with MO^Nodal to knock down Nodal expression. […] (E) Immunohistochemical analysis of Ki67 expression (red/brown) and TUNEL staining in orthotopic melanoma (C8161) and breast carcinoma (MDA-MB-231) tumors. […] Proliferation is indicated by Ki67 staining and apoptotic nuclei were detected with confocal microscopy as red staining localized to the nuclei of apoptotic C8161 or MDA-MB-231 cells. […]
(§2) In order to establish a mechanism by which exposure to the hESC microenvironment abrogates tumorigenicity, the effects of this treatment on the in vivo tumor cell proliferation-to-apoptosis ratio were analyzed. […]

Nodal = Nodal protein expression, Western blot; format: cell-based, human; conditions: after administration of anti-Nodal Morpholino
Experimental: (§3) Protein lysates were prepared and quantified as previously described in Hess et al., 2001, Cancer Res. 61:3250-3255. Equal amounts of protein were separated by SDS-polyacrylamide gel electrophoresis under reducing conditions, and the resolved proteins were transferred onto Immobilon-P membranes (Millipore Corp., Bedford, Mass.). Membranes were blocked in 1% TBS, 0.1% Tween 20 (TBS-T) and 5% dry milk powder or 3% gelatin (for Nodal Westerns). Blots were incubated with anti-Nodal or anti-Lefty antibodies (Polyclonal rabbit anti-Nodal (H-110) 1:500 Santa Cruz Biotechnology, Santa Cruz, Calif.; Polyclonal goat anti-Lefty 1:500 R&D Systems, Minneapolis, Minn.), washed in TBS-T, and incubated with the appropriate horseradish peroxidase-labeled secondary antibody. Secondary antibodies were detected by enhanced chemiluminescence (Super Signal; Pierce, Rockford, Ill.) and exposure to autoradiography film (Molecular Technologies, St Louis, Mo.). Nodal protein was detected as two major bands at ˜48 and ˜35 kDa representing precursor and pro-Nodal respectively. Nodal often appeared as multiple bands, likely due to degradation of protein modifications. All experiments were done at least three times.
Conditioned matrices were prepared using hESCs, melanocytes, myoepithelial cells, amniotic fluid derived stem cells, or trophoblast cells on growth factor-reduced Matrigel (14 mg/mL; BD Biosciences) as previously described. Postovit et al., 2006, Stem Cells 24: 501-505. In all cases, cells were 80-100% confluent during the conditioning of the matrix. Alternatively, hESC-derived Lefty protein was seeded into Matrigel prior to polymerization. Human melanoma (C8161) or breast carcinoma (MDA-MB-231) cells, 2.5×10^5 cells/6-well dish, were subsequently exposed to this preconditioned matrix for 3 to 4 days.
as §3, with “primary antibody (Table 2),” for “anti-Nodal or anti-Lefty antibodies (Polyclonal rabbit anti-Nodal (H-110) 1:500 Santa Cruz Biotechnology, Santa Cruz, Calif.; Polyclonal goat anti-Lefty 1:500 R&D Systems, Minneapolis, Minn.),”, “TBS-T or TBS-T containing 0.5M NaCl for the Nodal Westerns,” for “TBS-T,”, “Nodal often appeared as multiple bands, likely due to degradation of protein modifications. All experiments were done at least three times.” left out

[1] = system: MDA-MB-231 breast carcinoma cells; experiment: In vivo tumor cell proliferation-to-apoptosis ratio (Ki67 / TUNEL), MDA-MB-231 tumors; conditions: MDA-MB-231 cells treated prior to injection into mouse
From the text: as §1, §2

[2] = system: C8161 human cutaneous melanoma cells; experiment: In vivo tumor formation, C8161 cells injected subcutaneously into nude mice; design: species or system mouse; conditions: 250,000 Morpholino-treated C8161 cells injected, vs control
Experimental: A microenvironment of human embryonic stem cells (H9 CMTX) was prepared as described above. C8161 human cutaneous melanoma cells were exposed to the H9 CMTX or Matrigel for 3 to 4 days prior to transplantation in a mouse model. Nude immunocompromised mice received an injection of the C8161 cells subcutaneously into the midscapular region (to mimic spontaneous metastatic dissemination found in human cancers). The animals were injected using a 25 or 27-gauge needle with 2.5×10^5 tumor cells/mouse in 0.05 ml RPMI media.
As a corollary to these findings, an orthotopic mouse model was used to examine the effect of Nodal inhibition on melanoma tumor formation. For the experimental tumourigenesis model, 5 week old nude mice (Harlan, Madison, Wis.) were injected subcutaneously with 250,000 C8161 cells, treated with control or anti-Nodal Morpholinos, in 50 μL of complete RPMI. Tumor measurements were taken on days 3, 7, 14 and 17 post-injection, and mice were sacrificed on day 17. For the orthotopic mouse tumor formation studies, statistical significance was determined using the Kruskal-Wallis One Way Analysis of Variance on Ranks, followed by Dunn's method. […]

In the case of “MO^Nodal: antisense Morpholino to Nodal, 5′-AAGCAGCACCTCCAGCCCTTATATC-3′ (SEQ ID NO: 20) (all phosphorodiamidate morpholino (PMO); further chemistry not fully specified)”, the “in vitro cell proliferation” value (MDA-MB-231 cells) is reported as “reduced proliferation”, the “ratio of proliferation to apoptosis” value (C8161 melanoma cells) is reported as “decreased” and the Nodal expression (Nodal) is reported as “down-regulation”. For the same substance, the “ratio of proliferation to apoptosis” value [1] was “decreased”, the “diminution of tumor incidence” value [2] was 30% and the tumorigenicity [2] was “significant reduction”.
